# Reference: patent US12721832B2, “Anti-senescence plant polyphenol drug downregulating senescence-related secretory phenotype and use thereof” (BYHEALTH CO., LTD., priority 2021, dated 2026)
# Key:
# senescent PSC27 cells = assay: SA-β-Gal staining of PSC27 under increasing PCC1 concentration; assay type: cell-based, human
# Method: Senescence-associated (3-galactosidase (SA-β-Gal) staining was performed following a previously reported procedure (Debacq-Chainiaux et al., 2009). Briefly, cells in culture dishes were washed with PBS and fixed at room temperature. Cells were fixed in 2% formaldehyde and 0.2% glutaraldehyde for 3 minutes. SA-β-Gal was used for staining with freshly prepared staining solution overnight at 37° C. Images were taken on the next day and the percentage of positive cells per unit area was calculated.
# SASP factors = assay: LCM and qRT-PCR of SASP factors in mouse lesions; assay type: in vivo, mice; details: MIT/PCC1 vs MIT, stromal cells
# Method: The stromal cells and cancer cells were specifically separated by LCM technology, total RNA was prepared and used for SASP expression detection. A P>0.05; *, P<0.05; **, P<0.01; ***, P<0.001.
# In a preclinical treatment trial, subcutaneously transplanted mice were fed with a standard experimental diet, after 2 weeks chemotherapy drugs mitoxantrone (MIT, dose: 0.2 mg/kg) and/or procyanidin C1 (PCC1) (500 μl, dose: 10 mg/kg) via intraperitoneal administration. The time points were: the former was administrated on the first day of the 3rd, 5th and 7th weeks, and the latter was administrated on the first day of the 5th and 7th weeks. A total of 3 cycles of MIT administration were carried out throughout the course of treatment, and each cycle lasted for 2 weeks. After the course of treatment, mouse tumors were harvested for volume measurement and histological analysis. Each mouse cumulatively received 0.6 mg/kg body weight of MIT and 30 mg/kg body weight of PCC1. In order to cause systemic expression of SASP factor induced by chemotherapy, MIT was administered to mice through intravenous infusion according to the above steps and sequence, but the dose was reduced to 0.1 mg/kg body weight/each time (the cumulative dose of MIT received in the whole course of treatment was 0.3 mg/kg body weight) to reduce drug-related toxicity. […]
# aged C57BL/6 mice = assay: Lifespan study in aged C57BL/6 mice; assay type: in vivo; details: from age 24-27 months
# Method: Starting at 24 to 27 months of age, C57BL/6 mice received intraperitoneal administration of vehicle or PCC1 every two weeks (n=80 for vehicle group; n=91 for PCC1 group). The median survival of animals in each group was calculated and indicated. ****, P<0.0001.
# Starting at 24 to 27 months of age, C57BL/6 mice received intraperitoneal administration of vehicle or PCC1 every two weeks (n=80 for vehicle group; n=91 for PCC1 group). The median lifetime survival of animals in each group was calculated and indicated. ****, P <0.0001.
# For the cell transplantation study, we obtained […] male C57BL/6 mice by serial rearing in the SPF animal platform, with 4 to 5 animals per cage. We first sorted the mice by body weight from low to high, and then selected mice with similar body weights. Next, the mice were assigned to senescence (SEN) or control (CTRL) transplant treatment at each interval using a random number generator, while the middle mice were assigned to the other treatment, so that the body weights of the senescence and control transplant mice were matched. One month after cell transplantation, when the mice were 18 months old, physical function tests were performed. After that, no further testing was done on the mice other than checking their cages. The earliest deaths occurred approximately 2 months after the last physical function test. […]
smiles,measurement,setting,value
"Oc1cc(O)c2c(c1)O[C@H](c1ccc(O)c(O)c1)[C@H](O)[C@H]2c1c(O)cc(O)c2c1O[C@H](c1ccc(O)c(O)c1)[C@H](O)[C@H]2c1c(O)cc(O)c2c1O[C@H](c1ccc(O)c(O)c1)[C@H](O)C2 [PCC1, procyanidin C1]",senescent cells remaining,"senescent PSC27 cells; 150 μM PCC1, 80% staining positive without drug",20%
same,killing effect at 200 μM versus 150 μM,senescent PSC27 cells; 200 μM PCC1,not further enhanced
same,concentration at which killing effect reached a threshold,senescent PSC27 cells; senescent PSC27,150 µM
same,concentration from which senescent cells are eliminated (SA-β-Gal staining),"senescent PSC27 cells; senescent PSC27, 0-200 μM",50 µM
same,MIT-induced SASP expression change upon PCC1,SASP factors,largely reversed
same,"risk of death HR, PCC1 group/vehicle group",aged C57BL/6 mice; P<0.0001,0.35
same,"median survival period after treatment, longer than vehicle group",aged C57BL/6 mice; drug every two weeks,64.2%
